In the RepoRT retention time repository (doi:10.1016/j.foodchem.2021.129757) one finds LC retention time data, which are given here for six compounds.

Common to all, as to conditions: stereoisomer not certain
Series [1] is described as follows: RP, 100 × 0.5 mm, 2.7 µm, 45 °C, 0.015 mL/min, estimated dead time 0.83 min; A: water + 0.9% formic acid; B: acetonitrile + 0.9% formic acid; gradient (min/%B) 0/1 0.5/1 4/95 4.5/1 5/1.
Series [2] can be described thus: RP, 50 × 0.5 mm, 2.7 µm, 35 °C, 0.01 mL/min, estimated dead time 0.62 min; A: water + 0.1% formic acid, pH 3; B: acetonitrile + 0.1% formic acid, pH 3; gradient (min/%B) 0/5 12/95 14/95 16/5.
A short description of series [3]: RP, Phenomenex Synergi Hydro-RP, 150 × 2 mm, 4 µm, 30 °C, 0.5 mL/min, estimated dead time 0.6 min; A: water + 0.1% formic acid, pH 3; B: acetonitrile + 0.1% formic acid, pH 3; gradient (min/%B) 0/5 1/5 35/45 40/100 45/100.
Series [4] in a line: RP, Phenomenex Luna Omega Polar C18, 100 × 2.1 mm, 1.6 µm, 40 °C, 0.5 mL/min, estimated dead time 0.44 min; A: water + 0.5% formic acid; B: acetonitrile + 0.5% formic acid; gradient (min/%B) 0/5 3/50 3.1/100 5/100 5.1/5 7/5.
The nature of series [5]: RP, Phenomenex Luna C18, 150 × 4.6 mm, 3 µm, 25 °C, 0.5 mL/min, estimated dead time 3.2 min; A: water + 0.1% formic acid, pH 3; B: acetonitrile + 0.1% formic acid, pH 3; gradient (min/%B) 0/0 30/30 35/40 50/80 52/80 60/0 65/0.
The nature of series [6]: RP, Phenomenex Luna Omega Polar C18, 100 × 2.1 mm, 1.6 µm, 40 °C, 0.5 mL/min, estimated dead time 0.44 min; A: water + 0.1% formic acid + 10 mM ammonium formate; B: acetonitrile; gradient (min/%B) 0/5 8/20 10/100 12/100 12.1/5 14/5.
A short description of series [7]: RP, Waters ACQUITY UPLC HSS T3, 100 × 2.1 mm, 1.8 µm, 30 °C, 0.4 mL/min, estimated dead time 0.55 min; A: water + 0.1% formic acid, pH 3; B: acetonitrile + 0.1% formic acid, pH 3; gradient (min/%B) 0/0 2/0 15/100 22/100 22.1/0 26/0.
Series [8] can be described thus: RP, Agilent ZORBAX Eclipse XDB-C18, 100 × 2.1 mm, 1.8 µm, 50 °C, 0.4 mL/min, estimated dead time 0.55 min; A: water + 0.1% formic acid, pH 3; B: methanol + 0.1% formic acid, pH 3; gradient (min/%B) 0/2 10/100 14.5/100 14.51/2 16.5/2.
A short description of series [9]: RP, Waters ACQUITY UPLC BEH Shield RP18, 100 × 2.1 mm, 1.7 µm, 30 °C, 0.6 mL/min, estimated dead time 0.37 min; A: water + 0.1% formic acid, pH 3; B: acetonitrile + 0.1% formic acid, pH 3; gradient (min/%B) 0/0 2/0 7/10 22/95 22.1/0 26/0.
A short description of series [10]: RP, Waters ACQUITY UPLC BEH Shield RP18, 150 × 2.1 mm, 1.7 µm, 40 °C, 0.4 mL/min, estimated dead time 0.83 min; A: water + 0.1% formic acid, pH 3; B: acetonitrile + 0.1% formic acid, pH 3; gradient (min/%B) 0/0 30/50 31/100 37/100 37.1/0.
A short description of series [11]: RP, Agilent InfinityLab Poroshell 120 EC-C18, 100 × 3 mm, 2.7 µm, 25 °C, 0.4 mL/min, estimated dead time 1.1 min; A: water + 0.1% formic acid, pH 3; B: acetonitrile + 0.1% formic acid, pH 3; gradient (min/%B) 0/5 10/25 20/40 24/90 25/90 26/5 30/5.
Series [12] is described as follows: RP, Waters ACQUITY UPLC BEH C18, 100 × 2.1 mm, 1.7 µm, 65 °C, 0.4 mL/min, estimated dead time 0.55 min; A: water + 0.1% formic acid, pH 3; B: 80% acetonitrile + 20% acetone + 0.1% formic acid, pH 3; gradient (min/%B) 0/0 5/100 5.5/0 6/0.
The nature of series [13]: RP, Agilent ZORBAX RRHD Eclipse Plus C18, 50 × 2.1 mm, 1.8 µm, 30 °C, 0.4 mL/min, estimated dead time 0.28 min; A: water + 0.1% formic acid, pH 3; B: acetonitrile + 0.1% formic acid, pH 3; gradient (min/%B) 0/1 5/10 8/25 9.1/99 10/99 12/1.
Series [14] can be described thus: RP, Agilent ZORBAX RRHD Eclipse Plus C18, 50 × 2.1 mm, 1.8 µm, 30 °C, 0.4 mL/min, estimated dead time 0.28 min; A: water + 0.1% formic acid, pH 3; B: acetonitrile + 0.1% formic acid, pH 3; gradient (min/%B) 0/1 5/10 8/25 9.1/99 10/99 12/99.
Series [15] can be described thus: RP, Phenomenex Synergi Hydro-RP, 250 × 2 mm, 4 µm, 25 °C, 0.2 mL/min, estimated dead time 2.5 min; A: water + 0.1% formic acid, pH 3; B: acetonitrile + 0.1% formic acid, pH 3; gradient (min/%B) 0/0.5 7/0.5 12/12.5 25/16.3 47/35 48/65 50/65 50.1/0.5.

On to `O=c1ccc2c(O)c3ccoc3cc2o1` [Bergaptol], for which the LC retention time in series [1] is 3.08 min; in series [2], 5.42 min; in series [3], 21.6 min; in [4], 3.25 min; in series [5], 37.6 min; in [6], 9.43 min. In addition, the LC retention time in series [7] was 11 min; in series [8], 6.04 min; in series [9], 14.7 min; in series [10], 17.9 min; in series [11] it was 13.9 min.
Consider `COc1cc(C=CC(=O)CC(=O)C=Cc2ccc(O)c(OC)c2)ccc1O` [Curcumin], for which the LC retention time in series [1] is 3.75 min; in series [2], 7.99 min; in [3], 37.7 min; in [4], 3.84 min; in series [5], 48.7 min; in [6] it was 10.1 min. Also, the LC retention time in [7] was 13.6 min; in [8], 8.13 min; in series [9] it was 18.2 min; in [10], 13 min; in series [11], 22.9 min.
On to `O=C(O)CCc1ccc(O)c(O)c1` [Dihydrocaffeic acid], for which the LC retention time is 2.4 min in series [1]; 2.6 min in series [2]; 14.6 min in series [3]; 2.6 min in series [4]; 14.2 min in series [5]; 3.46 min in series [6]. In addition, the LC retention time was 8.3 min in series [7]; 3.33 min in [8]; 1.69 min in [12]; 8.08 min in series [9]; 5.6 min in series [10]; 5.05 min in series [13]. The results for the LC retention time in series [14], in series [11] and in [15] were 2.11 min, 6.04 min and 20.1 min, respectively.
As to `O=C(O)C1OC(Oc2c(-c3ccc(O)cc3)oc3cc(O)cc(O)c3c2=O)C(O)C(O)C1O` (stereo unspecified) [Kaempferol-3-O-glucuronide], the LC retention time in [1] was 2.39 min; in series [2], 4.81 min; in series [3] it was 17.4 min; in [4] it was 2.53 min; in series [5], 27.4 min; in series [6] it was 8.58 min. For the same compound, the LC retention time in series [7] is 9.51 min; in [8] it was 5.52 min; in series [9] it was 13.7 min; in series [10], 15.2 min; in [13], 8.37 min; in series [14] it was 8.79 min. For the same compound, in series [11], the LC retention time is 10.5 min.
As to `O=C(O)CCc1ccc(O)cc1` [Phloretic acid], the LC retention time in series [1] was 2.32 min; in series [2], 3.41 min; in series [3] it was 11.7 min; in series [4], 2.19 min; in series [5], 19.9 min; in series [6] it was 5.01 min. The LC retention time is 9.17 min in [7]; 4.09 min in [8]; 2.09 min in [12]; 10.4 min in series [9]; 6.46 min in series [10]; 6.75 min in series [13]. For the same compound, the figures for the LC retention time in series [14], in series [11] and in series [15] were 6.26 min, 7.93 min and 26 min, respectively.
Regarding `Oc1cc(O)c2c(c1)OC1(c3ccc(O)c(O)c3)Oc3cc(O)c4c(c3C2C1O)OC(c1ccc(O)c(O)c1)C(O)C4` (stereo unspecified) [Procyanidin A2], the LC retention time in series [1] was 2.53 min; in series [2] it was 4.38 min; in [3] it was 16 min; in [4] it was 2.41 min; in series [5] it was 24.4 min; in [6], 8.12 min. Further, the LC retention time is 9.38 min in series [7]; 4.3 min in series [8]; 13.1 min in [9]; 8.05 min in [13]; 9.7 min in [11].
